# Measurements from US20240262845A1, “PYRIDINIUM SALTS, METHODS OF MAKING, AND METHODS OF USE” (UNIVERSITY OF WYOMING, priority 2023, published 2024).
# Where a name gives a salt, the structure may show the parent alone.
# Molecular target: T1, lysozyme (Gallus gallus, UniProt P00698)
# T1 construct: Lysozyme (from chicken egg white, >40,000 units/mg of protein); purchased Sigma Aldrich; host or cells: chicken egg white
# Assay: Photochemical labeling of lysozyme with pyridinium salts (General Procedure B, LC/MS)
# Type: biochemical, chicken
# Protocol: General Procedure B: Photochemical Irradiation of Peptides and Proteins: To a 2 mL Pyrex LC/MS vial (Thermo model #03-391-39) were sequentially added solutions containing the desired biomolecule, glutathione (GSH), pyridinium salt, and ammonium acetate (NH4OAc). The resulting solution was diluted to a final volume of 500 μL and then sparged using nitrogen for a minimum of 30 minutes prior to irradiation. The actively sparging solution was then placed in an EvoluChem™ PhotoRedOx Box photoreactor that was equipped with a Kessil, PR160 427 nm LED Lamp and was then irradiated (100% lamp intensity) for the designated time at room temperature while maintaining active sparging. The resultant reaction mixture was then analyzed directly by LC/MS. Analysis of labeling outcomes using LC/MS was performed either by extracted ion chromatogram intensities (method A) or by integrating the area under the peaks associated with peptide content (method B). These values were totaled, and estimated percentages were assigned according to relative intensities of peaks or ion counts.
# Labeling of Lysozyme with Pyridinium Salt 2a (Lysozyme-2a Conjugate). Labeling of lysozyme (14.3 kDa) with the pyridinium salt 2a was performed by following general procedure B using the following solutions: lysozyme (27 μL, 182 μM, 10 μM final concentration), pyridinium salt 2a (200 μL, 500 μM, 200 μM final concentration), NH4OAc (100 μL, 100 mM, pH=6.9, 20 mM final concentration), glutathione (15 μL, 10 mM, 300 μM final concentration), and water (158 μL) with a 100% intensity irradiation time of 60 minutes. The reaction mixture was analyzed directly by LC/MS using method A and was estimated to have proceeded in >95% conversion and a 10.9:1 mono:di labeled ratio and 10% glutathionylation of all unlabeled and labeled protein content was observed.
# Labeling of Lysozyme with Pyridinium Salt 2b (Lysozyme-2b Conjugate). Labeling of lysozyme (14.3 kDa) with the pyridinium salt 2b was performed by following general procedure Busing the following solutions: lysozyme (19 μL, 262 μM, […]), 2b (181 μL, 554 μM, 200 μM final concentration), NH4OAc (50 μL, 200 mM, pH=6.9, 20 mM final concentration), glutathione (50 μL, 3 mM, 300 μM final concentration), and water (200 μL) with a 100% intensity irradiation time of 10 minutes. The reaction mixture was analyzed directly by LC/MS using method A and was estimated to have proceeded with 83% conversion. […]
# Labeling of Lysozyme with Pyridinium Salt 2c (Lysozyme-2c Conjugate). […] The reaction mixture was analyzed directly by LC/MS using method A and was estimated to have proceeded with 85% conversion and a 3.7:1 mono:di labeled ratio and 10% glutathionylation of all protein content was observed. […]
# T1 sequence (P00698 19-147): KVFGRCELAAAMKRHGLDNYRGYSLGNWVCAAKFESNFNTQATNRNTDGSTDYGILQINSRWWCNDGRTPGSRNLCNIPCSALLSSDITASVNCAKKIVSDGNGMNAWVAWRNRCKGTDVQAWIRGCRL
labeling rate compared to pyridinium salt 2a (lysozyme labeling),Compound,"Modified Trp (trypsin digest, MS-MS)"
much faster rate,"COc1ccc2cc(-c3cc(C)[n+](N(C)C(=O)OCCCCC[C@H]4SC[C@H]5NC(=O)N[C@H]54)c(C)c3)ccc2c1 (stereo in doubt) [pyridinium salt 2b, 4-(6-methoxynaphthalen-2-yl)-2,6-dimethyl-1-(methyl(((5-((3aR,4R,6aS)-2-oxohexahydro-1H-thieno[3,4-d]imidazol-4-yl)pentyl)oxy)carbonyl)amino)pyridin-1-ium tetrafluoroborate]",–
–,"COC(=O)N(C)[n+]1c(C)cc(-c2ccc3cc(OC)ccc3c2)cc1C [pyridinium salt 2a, 1-((methoxycarbonyl)(methyl)amino)-4-(6-methoxynapthalen-2-yl)-2,6-dimethylpyridin-1-ium tetrafluoroborate]",Trp-62
